Measured values from ChEMBL document CHEMBL1135269, “Benzoindoloquinolines interact with DNA tetraplexes and inhibit telomerase” (Bioorg Med Chem Lett, 2002).
pIC50: −log10 of the molar value.

Key:
[1] = molecular target: DNA polymerase I, thermostable (Thermus aquaticus, UniProt P19821); assay: Tested for inhibitory activity against Taq DNA polymerase
[2] = molecular target: Telomerase reverse transcriptase (Homo sapiens, UniProt O14746); assay: Tested for inhibitory activity against Telomerase in telomerase repeat amplification protocol (TRAP) assay
Chain of Telomerase reverse transcriptase (O14746 whole entry): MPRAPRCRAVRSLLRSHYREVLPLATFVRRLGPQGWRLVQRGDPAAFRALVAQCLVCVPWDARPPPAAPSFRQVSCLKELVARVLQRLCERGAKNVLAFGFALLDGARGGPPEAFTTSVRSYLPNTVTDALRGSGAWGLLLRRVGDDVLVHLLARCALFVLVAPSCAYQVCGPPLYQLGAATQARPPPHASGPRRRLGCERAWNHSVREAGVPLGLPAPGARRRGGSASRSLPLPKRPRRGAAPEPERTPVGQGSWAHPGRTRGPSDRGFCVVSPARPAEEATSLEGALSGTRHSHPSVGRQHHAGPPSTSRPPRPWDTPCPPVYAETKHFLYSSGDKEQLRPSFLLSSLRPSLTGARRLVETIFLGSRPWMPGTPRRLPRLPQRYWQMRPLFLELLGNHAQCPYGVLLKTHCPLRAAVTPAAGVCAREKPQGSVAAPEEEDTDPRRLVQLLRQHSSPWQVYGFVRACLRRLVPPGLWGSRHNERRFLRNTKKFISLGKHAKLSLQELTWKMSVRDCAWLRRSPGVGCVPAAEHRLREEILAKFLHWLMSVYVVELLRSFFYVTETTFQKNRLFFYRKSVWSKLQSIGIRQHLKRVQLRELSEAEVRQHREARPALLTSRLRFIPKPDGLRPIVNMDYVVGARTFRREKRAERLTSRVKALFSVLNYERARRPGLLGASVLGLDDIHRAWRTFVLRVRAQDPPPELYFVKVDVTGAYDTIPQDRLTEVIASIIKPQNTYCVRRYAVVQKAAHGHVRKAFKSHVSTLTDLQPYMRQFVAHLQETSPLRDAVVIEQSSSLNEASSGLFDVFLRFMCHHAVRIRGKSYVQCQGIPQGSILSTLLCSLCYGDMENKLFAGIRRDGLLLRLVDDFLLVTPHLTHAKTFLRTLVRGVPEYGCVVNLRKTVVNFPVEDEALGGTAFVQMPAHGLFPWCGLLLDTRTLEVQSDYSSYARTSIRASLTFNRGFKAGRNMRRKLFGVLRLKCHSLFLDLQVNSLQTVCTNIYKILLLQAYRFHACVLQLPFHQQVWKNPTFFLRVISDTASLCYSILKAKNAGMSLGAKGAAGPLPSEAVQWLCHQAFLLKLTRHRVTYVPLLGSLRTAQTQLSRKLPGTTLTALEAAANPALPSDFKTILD

Chain of DNA polymerase I, thermostable (P19821 whole entry): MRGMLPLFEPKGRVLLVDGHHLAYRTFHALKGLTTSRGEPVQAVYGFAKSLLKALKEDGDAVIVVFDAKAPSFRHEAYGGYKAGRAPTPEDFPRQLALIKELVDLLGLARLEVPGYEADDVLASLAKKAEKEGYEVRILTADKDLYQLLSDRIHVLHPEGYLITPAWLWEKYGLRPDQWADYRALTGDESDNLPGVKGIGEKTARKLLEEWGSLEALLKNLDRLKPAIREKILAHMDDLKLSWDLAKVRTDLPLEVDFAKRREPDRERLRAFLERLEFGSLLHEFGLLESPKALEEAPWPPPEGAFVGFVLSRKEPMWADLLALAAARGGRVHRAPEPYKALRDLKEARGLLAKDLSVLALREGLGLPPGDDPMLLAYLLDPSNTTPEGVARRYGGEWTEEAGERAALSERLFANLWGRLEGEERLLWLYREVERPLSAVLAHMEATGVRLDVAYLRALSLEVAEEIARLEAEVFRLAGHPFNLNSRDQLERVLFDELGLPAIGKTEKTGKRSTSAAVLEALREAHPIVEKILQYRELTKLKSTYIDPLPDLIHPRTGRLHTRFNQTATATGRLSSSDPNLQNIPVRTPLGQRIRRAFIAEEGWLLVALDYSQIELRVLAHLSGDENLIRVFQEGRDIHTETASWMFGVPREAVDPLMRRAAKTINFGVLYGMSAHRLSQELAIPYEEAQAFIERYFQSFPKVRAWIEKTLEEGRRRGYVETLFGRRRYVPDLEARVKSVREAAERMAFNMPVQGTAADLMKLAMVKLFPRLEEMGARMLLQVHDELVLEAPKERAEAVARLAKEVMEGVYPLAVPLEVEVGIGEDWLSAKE

Row | SMILES | pIC50 [1] | pIC50 [2]
1 | CN(C)CCCNc1nc2ccccc2c2[nH]c3c4cc([N+](=O)[O-])ccc4ccc3c12 | 5.30 | 6.30
2 | COc1ccc2ccc3c([nH]c4c5ccccc5nc(NCCN(C)C)c34)c2c1 | < 5.00 | 5.01
3 | COc1ccc2ccc3c([nH]c4c5ccccc5nc(NCCCN(C)C)c34)c2c1 | 5.66 | 5.96
4 | COc1ccc2c(ccc3c2[nH]c2c4ccccc4nc(NCCCN(C)C)c32)c1 | 6.05 | 6.00
